Tests used:
Format in all cases: cell-based
SW579 cells = experiment: CellTiter-Glo cell viability, SW579; conditions: 72 h
Procedure: (§1) The cell viability of 50 cancer cell lines was studied after treatment with Compound 121. Inhibition concentration values at 50% (IC50) were determined using CellTiter-Glo luminescent cell viability assay after incubation with different compound concentrations. GI50 values were determined according to the examples described above. Each cell line was treated with Compound 121, a standard chemotherapy drug as a reference control, and culture medium as a vehicle control.
(§2) All cells were cultured in media supplemented with 10-15% FBS at 37° C. in the presence of 5% CO2 and at 95% humidity. The culture medium was purchased from GIBCO or Sigma, USA. Cisplatin was chosen as the reference control and purchased from Hospira Australia Pty Ltd. The cell lines studied are presented in Table 5.
(§3) Cells were harvested during a logarithmic growth period and cell number count was determined using Count-star. Cell concentrations were adjusted to 4.44×10^4 cells/mL with respective culture medium. 90 μL of cell suspensions were added to two 96-well plates (plates A and B) with a final cell density of 4×10^3 cells/well.
(§4) 10 μL of culture medium was added to each well of plate A for TO reading. The plate was allowed to equilibrate at room temperature for approximately 30 min. 50 μL of CellTiter-Glo was added to each well and the contents were mixed for 5 min on an orbital shaker to induce cell lysis. The plate was allowed to incubate at room temperature for 20 min to stabilize luminescent signal.
(§5) 10 μM Compound 121 in media was serially diluted 3.16-fold to achieve 9 dose levels. Similarly, 100 μM reference control in media was serially diluted 3.16-fold to prepare reference control solutions. 10 μL drug solution and 10 μL of reference control was dispensed into each well in plate B.
(§6) Test plate B was incubated for 72 h in a humidified incubator at 37° C. in the presence of 5% CO2 and then subjected to CTG assay. The plate was allowed to equilibrate at room temperature for about 30 min. 50 μL of CellTiter-Glo was added to each well and the contents were mixed for 5 min on an orbital shaker to induce cell lysis. The plate was allowed to incubate at room temperature for 20 min to stabilize luminescent signal.
(§7) IC50 and GI50 values for each of the 50 cell lines are presented in Table 6 and were calculated based on the dose-response curves depicted in FIGS. 1-50. The dose-response curves were fitted using nonlinear regression model with a sigmoidal dose response. The formula for calculating survival rate was calculated by the formula:
(§8) Survival rate (%)=(LumTest article−LumMedium control)/(LumNone treated−LumMedium control)×100.

HT-1080 cells = experiment: CellTiter-Glo cell viability, HT-1080; conditions: Homo sapiens, 72 h
Procedure: as §1, §2, §3, §4, §5, §6, §7, §8

HCT-15 cells = experiment: CellTiter-Glo cell viability, HCT-15; conditions: Homo sapiens, 72 h
Procedure: as §1, §2, §3, §4, §5, §6, §7, §8

MDA-MB-453 cells = experiment: CellTiter-Glo cell viability, MDA-MB-453; conditions: Homo sapiens, 72 h
Procedure: as §1, §2, §3, §4, §5, §6, §7, §8

RPMI 8226 cells = experiment: CellTiter-Glo cell viability, RPMI 8226; conditions: Homo sapiens, 72 h
Procedure: as §1, §2, §3, §4, §5, §6, §7, §8

NCI-H226 cells = experiment: CellTiter-Glo cell viability, NCI-H226; conditions: Homo sapiens, 72 h
Procedure: as §1, §2, §3, §4, §5, §6, §7, §8

HCT-116 cells = experiment: CellTiter-Glo cell viability, HCT-116; conditions: Homo sapiens, 72 h
Procedure: as §1, §2, §3, §4, §5, §6, §7, §8

A-172 cells = experiment: CellTiter-Glo cell viability, A-172; conditions: Homo sapiens, 72 h
Procedure: as §1, §2, §3, §4, §5, §6, §7, §8

MX-1 cells = experiment: CellTiter-Glo cell viability, MX-1; conditions: Homo sapiens, MX1, 72 h
Procedure: as §1, §2, §3, §4, §5, §6, §7, §8

HT-1376 cells = experiment: CellTiter-Glo cell viability, HT-1376; conditions: Homo sapiens, 72 h
Procedure: as §1, §2, §3, §4, §5, §6, §7, §8

HeLa cells = experiment: CellTiter-Glo cell viability, HeLa; conditions: Homo sapiens, 72 h
Procedure: as §1, §2, §3, §4, §5, §6, §7, §8

K-562 cells = experiment: CellTiter-Glo cell viability, K-562; conditions: Homo sapiens, K562, 72 h
Procedure: as §1, §2, §3, §4, §5, §6, §7, §8

NCI-H1975 cells = experiment: CellTiter-Glo cell viability, NCI-H1975; conditions: Homo sapiens, 72 h
Procedure: as §1, §2, §3, §4, §5, §6, §7, §8

FaDu cells = experiment: CellTiter-Glo cell viability, FaDu; conditions: Homo sapiens, 72 h
Procedure: as §1, §2, §3, §4, §5, §6, §7, §8

HL-60 cells = experiment: CellTiter-Glo cell viability, HL-60; conditions: Homo sapiens, 72 h
Procedure: as §1, §2, §3, §4, §5, §6, §7, §8

MDA-MB-231 cells = experiment: CellTiter-Glo cell viability, MDA-MB-231; conditions: Homo sapiens, 72 h
Procedure: as §1, §2, §3, §4, §5, §6, §7, §8

PC-3 cells = experiment: CellTiter-Glo cell viability, PC-3; conditions: Homo sapiens, 72 h
Procedure: as §1, §2, §3, §4, §5, §6, §7, §8

AN3 CA cells = experiment: CellTiter-Glo cell viability, AN3 CA; conditions: Homo sapiens, 72 h
Procedure: as §1, §2, §3, §4, §5, §6, §7, §8

A2058 cells = experiment: CellTiter-Glo cell viability, A2058; conditions: Homo sapiens, 72 h
Procedure: as §1, §2, §3, §4, §5, §6, §7, §8

SCC-4 cells = experiment: CellTiter-Glo cell viability, SCC-4; conditions: Homo sapiens, 72 h
Procedure: as §1, §2, §3, §4, §5, §6, §7, §8

EBC-1 cells = experiment: CellTiter-Glo cell viability, EBC-1; conditions: Homo sapiens, 72 h
Procedure: as §1, §2, §3, §4, §5, §6, §7, §8

U251 cells = experiment: CellTiter-Glo cell viability, U251; conditions: Homo sapiens, U-251, 72 h
Procedure: as §1, §2, §3, §4, §5, §6, §7, §8

[1] = top conc. 10 μM Compound 121, 100 μM cisplatin

Question: With `Cc1cc(N2CCOC[C@@H]2C)ccc1-c1ccc(CC(=O)NCc2ccc(F)cc2)nc1` [Compound 121] as the compound, how does the GI50 (SW579 cells; read-out: Absolute GI50) read?
Answer: 6 nM

Question: And the IC50 (SW579 cells; read-out: Absolute IC50)?
Answer: 7 nM

Question: And the inhibition at 10 µM (SW579 cells; [1])?
Answer: 88.2%

Question: What about the GI50 (HT-1080 cells; read-out: Absolute GI50) of the same compound?
Answer: 5 nM

Question: What about the IC50 (HT-1080 cells; read-out: Absolute IC50) of the same compound?
Answer: 5 nM

Question: What about the inhibition at 10 µM (HT-1080 cells; [1]) of the same compound?
Answer: 97.2%

Question: And the GI50 (HCT-15 cells; read-out: Absolute GI50)?
Answer: 5 nM

Question: And the IC50 (HCT-15 cells; read-out: Absolute IC50)?
Answer: 6 nM

Question: And the inhibition at 10 µM (HCT-15 cells; [1])?
Answer: 96.8%

Question: And the GI50 (MDA-MB-453 cells; read-out: Absolute GI50)?
Answer: 4 nM

Question: What about the IC50 (MDA-MB-453 cells; read-out: Absolute IC50) of the same compound?
Answer: 4 nM

Question: What about the inhibition at 10 µM (MDA-MB-453 cells; [1]) of the same compound?
Answer: 67.5%

Question: What about the GI50 (RPMI 8226 cells; read-out: Absolute GI50) of the same compound?
Answer: 5 nM

Question: What about the IC50 (RPMI 8226 cells; read-out: Absolute IC50) of the same compound?
Answer: 6 nM

Question: And the inhibition at 10 µM (RPMI 8226 cells; [1])?
Answer: 94.8%

Question: What about the GI50 (NCI-H226 cells; read-out: Absolute GI50) of the same compound?
Answer: 10 nM

Question: And the IC50 (NCI-H226 cells; read-out: Absolute IC50)?
Answer: 13 nM

Question: And the inhibition at 10 µM (NCI-H226 cells; [1])?
Answer: 61.7%

Question: And the GI50 (HCT-116 cells; read-out: Absolute GI50)?
Answer: 9 nM

Question: What about the IC50 (HCT-116 cells; read-out: Absolute IC50) of the same compound?
Answer: 9 nM

Question: What about the inhibition at 10 µM (HCT-116 cells; [1]) of the same compound?
Answer: 94.4%

Question: And the GI50 (A-172 cells; read-out: Absolute GI50)?
Answer: 6 nM

Question: What about the IC50 (A-172 cells; read-out: Absolute IC50) of the same compound?
Answer: 7 nM

Question: And the inhibition at 10 µM (A-172 cells; [1])?
Answer: 92.8%

Question: And the GI50 (MX-1 cells; read-out: Absolute GI50)?
Answer: 11 nM

Question: What about the IC50 (MX-1 cells; read-out: Absolute IC50) of the same compound?
Answer: 18 nM

Question: And the inhibition at 10 µM (MX-1 cells; [1])?
Answer: 66.8%

Question: And the GI50 (HT-1376 cells; read-out: Absolute GI50)?
Answer: 6 nM

Question: What about the IC50 (HT-1376 cells; read-out: Absolute IC50) of the same compound?
Answer: 9 nM

Question: And the inhibition at 10 µM (HT-1376 cells; [1])?
Answer: 53%

Question: And the GI50 (HeLa cells; read-out: Absolute GI50)?
Answer: 4 nM

Question: And the IC50 (HeLa cells; read-out: Absolute IC50)?
Answer: 4 nM

Question: And the inhibition at 10 µM (HeLa cells; [1])?
Answer: 89.5%

Question: And the GI50 (K-562 cells; read-out: Absolute GI50)?
Answer: 6 nM

Question: What about the IC50 (K-562 cells; read-out: Absolute IC50) of the same compound?
Answer: 6 nM

Question: What about the inhibition at 10 µM (K-562 cells; [1]) of the same compound?
Answer: 98.1%

Question: What about the GI50 (NCI-H1975 cells; read-out: Absolute GI50) of the same compound?
Answer: 6 nM

Question: What about the IC50 (NCI-H1975 cells; read-out: Absolute IC50) of the same compound?
Answer: 6 nM

Question: And the inhibition at 10 µM (NCI-H1975 cells; [1])?
Answer: 83.7%

Question: And the GI50 (FaDu cells; read-out: Absolute GI50)?
Answer: 7 nM

Question: And the IC50 (FaDu cells; read-out: Absolute IC50)?
Answer: 8 nM

Question: And the inhibition at 10 µM (FaDu cells; [1])?
Answer: 85.9%

Question: And the GI50 (HL-60 cells; read-out: Absolute GI50)?
Answer: 7 nM

Question: And the IC50 (HL-60 cells; read-out: Absolute IC50)?
Answer: 8 nM

Question: And the inhibition at 10 µM (HL-60 cells; [1])?
Answer: 99.8%

Question: And the GI50 (MDA-MB-231 cells; read-out: Absolute GI50)?
Answer: 20 nM

Question: What about the IC50 (MDA-MB-231 cells; read-out: Absolute IC50) of the same compound?
Answer: > 10000 nM

Question: And the inhibition at 10 µM (MDA-MB-231 cells; [1])?
Answer: 45.8%

Question: And the GI50 (PC-3 cells; read-out: Absolute GI50)?
Answer: 8 nM

Question: What about the IC50 (PC-3 cells; read-out: Absolute IC50) of the same compound?
Answer: 8 nM

Question: And the inhibition at 10 µM (PC-3 cells; [1])?
Answer: 93.3%

Question: And the GI50 (AN3 CA cells; read-out: Absolute GI50)?
Answer: 5 nM

Question: And the IC50 (AN3 CA cells; read-out: Absolute IC50)?
Answer: 5 nM

Question: What about the inhibition at 10 µM (AN3 CA cells; [1]) of the same compound?
Answer: 98.6%

Question: What about the GI50 (A2058 cells; read-out: Absolute GI50) of the same compound?
Answer: 8 nM

Question: What about the IC50 (A2058 cells; read-out: Absolute IC50) of the same compound?
Answer: 8 nM

Question: And the inhibition at 10 µM (A2058 cells; [1])?
Answer: 98.1%

Question: What about the GI50 (SCC-4 cells; read-out: Absolute GI50) of the same compound?
Answer: 5 nM

Question: And the IC50 (SCC-4 cells; read-out: Absolute IC50)?
Answer: 6 nM

Question: And the inhibition at 10 µM (SCC-4 cells; [1])?
Answer: 86.1%

Question: And the GI50 (EBC-1 cells; read-out: Absolute GI50)?
Answer: 4 nM

Question: What about the IC50 (EBC-1 cells; read-out: Absolute IC50) of the same compound?
Answer: 4 nM

Question: What about the inhibition at 10 µM (EBC-1 cells; [1]) of the same compound?
Answer: 56.8%

Question: What about the GI50 (U251 cells; read-out: Absolute GI50) of the same compound?
Answer: 9 nM

Question: What about the IC50 (U251 cells; read-out: Absolute IC50) of the same compound?
Answer: 9 nM

Question: What about the inhibition at 10 µM (U251 cells; [1]) of the same compound?
Answer: 75%

— patent US20210196724A1, “BIARYL COMPOSITIONS AND METHODS FOR MODULATING A KINASE CASCADE” (Athenex, Inc., priority 2016, published 2021)
